Assay results taken from ChEMBL document CHEMBL3046905, “Synthesis, biological evaluation and molecular docking studies of 1,3-benzoxazine derivatives as potential anticancer agents” (Med Chem Res, 2013).
Active and inactive are the calls of the source. The calls are words filed in the database; no cut-off is given here.

What was measured:
MCF7 [1] = experiment: Growth inhibition of Homo sapiens (human) MCF7 cells at 7.5 ug/ml after 48 hr by MTT assay relative to control; format: functional; conditions: for inhibition of growth at 7.5 µg/mL: MCF7, 48 h, read-out: GI
MCF7 [2] = experiment: Growth inhibition of Homo sapiens (human) MCF7 cells at 60 ug/ml after 48 hr by MTT assay relative to control; format: functional; conditions: MCF7, 48 h, read-out: GI
MCF7 [3] = experiment: Growth inhibition of Homo sapiens (human) MCF7 cells at 30 ug/ml after 48 hr by MTT assay relative to control; format: functional; conditions: MCF7, 48 h, read-out: GI
MCF7 [4] = experiment: Growth inhibition of Homo sapiens (human) MCF7 cells after 48 hr by MTT assay; format: functional, cell-based
MCF7 [5] = experiment: Growth inhibition of Homo sapiens (human) MCF7 cells at 15 ug/ml after 48 hr by MTT assay relative to control; format: functional; conditions: for inhibition of growth at 15 µg/mL: MCF7, 48 h, read-out: GI
[6] = Homo sapiens, MCF7, 48 h, read-out: IC50

| SMILES | inhibition of growth at 7.5 µg/mL (MCF7 [1]) | inhibition of growth at 60 µg/mL (MCF7 [2]) | inhibition of growth at 30 µg/mL (MCF7 [3]) | IC50 (MCF7 [4]; mcf7) | inhibition of growth at 15 µg/mL (MCF7 [5]) | IC50 (MCF7 [4]; [6]) | growth inhibition (GI) (MCF7 [5]) | growth inhibition (GI) (MCF7 [1]) |
| --- | --- | --- | --- | --- | --- | --- | --- | --- |
| O=c1cc(-c2ccccc2)oc2cc(N3COc4ccccc4C3)ccc12 | 2.65% | 19.3% | 12.7% | Not Active | 3.89% | – | – | – |
| Cc1cc(C)c2c(c1)CN(c1ccc3c(=O)cc(-c4ccccc4)oc3c1)CO2 | 11.2% | 48.4% | 26.8% | – | – | 61.9 µM | inactive | – |
| O=c1cc(-c2ccccc2)oc2cc(N3COc4c(Cl)cc(Cl)cc4C3)ccc12 | – | 68.8% | 34.6% | – | 11.8% | 44.5 µM | – | inactive |
| O=c1cc(-c2ccccc2)oc2ccc(N3COc4c(Br)cccc4C3)cc12 | – | 81.8% | 71.6% | – | 37.8% | 19.6 µM | – | inactive |
| O=c1cc(-c2ccccc2)oc2ccc(N3COc4ccccc4C3)cc12 | 8.7% | 92.7% | 68.5% | – | 34% | 27.5 µM | – | – |
| Cc1cccc2c1OCN(c1ccc3c(=O)cc(-c4ccccc4)oc3c1)C2 | 43.9% | 66.6% | 57.8% | – | 54.9% | 14.9 µM | – | – |
| COc1cc2c(c(OC)c1)OCN(c1ccc3c(=O)cc(-c4ccccc4)oc3c1)C2 | 45.8% | 88.9% | 75.9% | – | 62.9% | 12.1 µM | – | – |
| O=c1cc(-c2ccccc2)oc2cc(N3COc4c(Br)cc(Br)cc4C3)ccc12 | 1.48% | 26.5% | 11.1% | Not Active | 1.64% | – | – | – |
| COc1cccc2c1C(=O)c1c(O)c3c(c(O)c1C2=O)C[C@@](O)(C(=O)CO)C[C@@H]3O[C@H]1C[C@H](N)[C@H](O)[C@H](C)O1 [DOXORUBICIN] | 50.8% | 99.5% | 88.9% | – | 70.3% | 7.2 µM | – | – |
| O=c1cc(-c2ccccc2)oc2ccc(N3COc4c(Cl)cc(Cl)cc4C3)cc12 | 32.8% | 80.3% | 74% | – | 61.3% | 12 µM | – | – |
| O=c1cc(-c2ccccc2)oc2ccc(N3COc4c(Br)cc(Br)cc4C3)cc12 | 6.54% | 34.5% | 16.1% | Not Active | 13.6% | – | – | – |
| Cc1cccc2c1OCN(c1ccc3oc(-c4ccccc4)cc(=O)c3c1)C2 | 30.4% | 85.1% | 72.4% | – | 60.9% | 14.3 µM | – | – |
| O=c1cc(-c2ccccc2)oc2cc(N3COc4c(Br)cccc4C3)ccc12 | 2.21% | 19.5% | 7.89% | Not Active | 5.64% | – | – | – |
| O=c1cc(-c2ccccc2)oc2ccc(N3COc4c(cccc4[N+](=O)[O-])C3)cc12 | 8.2% | 72.9% | 61.9% | – | 55.9% | 28.4 µM | – | – |
| Cc1ccc2c(c1)CN(c1ccc3oc(-c4ccccc4)cc(=O)c3c1)CO2 | 16.5% | 79.5% | 56.9% | – | 31% | 29.8 µM | – | – |
| COc1cccc2c1OCN(c1ccc3oc(-c4ccccc4)cc(=O)c3c1)C2 | 32.5% | 91.9% | 67.8% | – | 54% | 17 µM | – | – |
| COc1cc2c(c(OC)c1)OCN(c1ccc3oc(-c4ccccc4)cc(=O)c3c1)C2 | 48.9% | 99.1% | 79% | – | 60% | 8.01 µM | – | – |
| O=c1cc(-c2ccccc2)oc2cc(N3COc4c(cccc4[N+](=O)[O-])C3)ccc12 | – | 15.7% | 5.65% | Not Active | 1.96% | – | – | inactive |
